Patent US20250250258A1, “CRYSTAL FORM OF FGFR4 SELECTIVE INHIBITOR COMPOUND, AND PREPARATION METHOD THEREFOR AND USE THEREOF” (ZHEJIANG HISUN PHARMACEUTICAL CO., LTD., priority 2022, published 2025)
Read-outs that look alike come from different tables or passages of the source.

Experiments:
[1] = system: hepatocellular carcinoma cells Hep3B; conditions: reported in background for PCT/CN2017/085135 compound, read-out: inhibitory activity against hepatocellular carcinoma cells Hep3B, IC50; cited from earlier work
[2] = Comparative solubility assay in water; type: physicochemical
[3] = Pharmacokinetic experiment in ICR mice, single gavage; type: in vivo; conditions: 75 mg·kg −1, single gavage
Protocol: Before and 0.25, 0.5, 1, 2, 4, 8, 10, 12 and 24 hours after administration, 0.15 mL blood was collected from fundus venous plexus and placed into anticoagulant tubes containing EDTA-K2.

[4] = Stability test (25° C., 40° C., light irradiation of 4500 LX, 30 days); type: physicochemical
Protocol: The compound represented by formula (I) of the present disclosure was subjected to HPLC for purity detection under the following conditions. The used chromatographic column was Waters, XBridge C18 4.6×150 mm, 3.5 μm; the mobile phase A consisted of buffer solution: acetonitrile=70:30, the mobile phase B consisted of buffer solution: acetonitrile=[…], the buffer solution was prepared by weighing 9.13 g of dipotassium hydrogen phosphate trihydrate in 2,000 mL of pure water, and adjusting pH using phosphoric acid to 8.0; the detection wavelength was 234 nm; the flow rate was 1.0 mL/min; the column temperature was 25° C.; and the injection volume was 10 μL.

[5] = stability at 25° C., day 0, HPLC
[6] = stability at 25° C., day 10, HPLC
[7] = stability at 25° C., day 30, HPLC
[8] = stability at 40° C., day 0, HPLC
[9] = stability at 40° C., day 10, HPLC
[10] = stability at 40° C., day 30, HPLC
[11] = stability under the light irradiation of 4500LX, day 0, HPLC
[12] = stability under the light irradiation of 4500LX, day 10, HPLC
[13] = stability under the light irradiation of 4500LX, day 30, HPLC

Row | SMILES | IC50 [1] [nM] | solubility in water at 25° C. [2] | solubility ([2]; 25 °C, thermodynamic from solid) [mg/mL] | Tmax ([3]; ICR, mouse, in vivo, po, 75 mg/kg, read-out: Tmax) [min] | purity (%) [4, 5] [%] | purity (%) [4, 6] [%] | purity (%) [4, 7] [%] | purity (%) [4, 8] [%] | purity (%) [4, 9] [%] | purity (%) [4, 10] [%] | purity (%) [4, 11] [%] | purity (%) [4, 12] [%] | purity (%) [4, 13] [%] | solubility in water at 25° C. ([2]; listed as the crystal form A of the compound represented by formula (I)) [mg/mL] | Tmax [3] [min] | Cmax ([3]; mouse, in vivo, po) [ng/mL] | half-life ([3]; mouse, in vivo, po) [min] | AUC(0-t) ([3]; mouse, in vivo, po, 0-24 h sampling) [ng·h/mL]
1 | C=CC(=O)Nc1cc(N2CCN(CC)C3(CC3)C2)ccc1Nc1cc(N(C)C(=O)Nc2c(Cl)c(OC)cc(OC)c2Cl)ncn1 [N-(2-((6-(3-(2,6-dichloro-3,5-dimethoxyphenyl)-1-methylureido)pyrimidin-4-yl)amino)-5-(4-ethyl-4,7-diazaspiro[2.5]octane-7-yl)phenyl)acrylamide] | 19 | insoluble | – | – | – | – | – | – | – | – | – | – | – | – | – | – | – | –
2 | C=CC(=O)Nc1cc(N2CCN(CC)C3(CC3)C2)ccc1Nc1cc(N(C)C(=O)Nc2c(Cl)c(OC)cc(OC)c2Cl)ncn1.CCS(=O)(=O)O.CCS(=O)(=O)O [amorphous form, N-(2-((6-(3-(2,6-dichloro-3,5-dimethoxyphenyl)-1-methylureido)pyrimidin-4-yl)amino)-5-(4-ethyl-4,7-diazaspiro[2.5]octan-7-yl)phenyl)acrylamide diethanesulfonate salt] | – | – | 115 | 30 | 98.80 | 96.60 | 91.60 | 98.80 | 93.40 | 87.60 | 98.80 | 86.20 | 73.70 | – | – | – | – | –
3 | C=CC(=O)Nc1cc(N2CCN(CC)C3(CC3)C2)ccc1Nc1cc(N(C)C(=O)Nc2c(Cl)c(OC)cc(OC)c2Cl)ncn1.CCS(=O)(=O)O.CCS(=O)(=O)O [crystal form A, N-(2-((6-(3-(2,6-dichloro-3,5-dimethoxyphenyl)-1-methylureido)pyrimidin-4-yl)amino)-5-(4-ethyl-4,7-diazaspiro[2.5]octan-7-yl)phenyl)acrylamide diethanesulfonate salt] | – | – | – | – | 99.64 | 99.63 | 99.62 | 99.64 | 99.61 | 99.60 | 99.64 | 99.61 | 99.54 | 100 | 36.6 | 3980 | 91.2 | 9340
